From patent publication US8772463B2, “Fluorescent dye-labeled glucose bioprobe, synthesis method and usage thereof” (SNU R&DB Foundation, priority 2007, dated 2014)
“Also recorded” adds a separate entry of the source.

Assays:
A549 cells [1] = test: Probe uptake by A549 cells, inverted fluorescent microscope (α/β anomers, alanine, 2-NBDG comparison); type: cell-based, human
Description: (§1) 1×10^4 cells were cultured on a Lab-Tek glass chamber slide (Nalge Nunc International, Naperville, Ind., USA) in 35 mm cell culture dish. After 24 h, the cells were treated for each experimental purpose. Then, the medium was replaced with RPMI 1640 medium containing 12.5 μM of Cy3-Glc-α. The cells were exposed to Cy3-Glc-α for 40 min, then washed with PBS 3 times. Finally, the glass chamber slide was taken from culture dish and loaded on the fluorescence microscope (Axiovert 200, Carl Zeiss, Germany). Fluorescence images of 35-50 cells were taken by CCD camera (Axiocam MRm, Germany) and fluorescence intensity of each cell was measured by Axiovision (program for data analysis). An area as ROIs (regions of interest) which contains a cell in phase-contrast image was drawn using Axiovision. Axiovision analyzed CCD camera images and provided the digitized mean of fluorescence intensity in the ROIs that the present inventors had established. The present inventors subtracted the background intensity from the fluorescence intensity to get the fluorescence intensity value that a cell contained. With the method described above, the present inventors digitized fluorescence intensity and performed various experiments.
To confirm the above hypothesis, real-time uptake of Cy3-Glc-α was measured, and the results were compared to those of Cy3-Glc-β by live imaging of A549 cells by using inverted fluorescent microscope. […] This led the present inventors to the conclusion that the stereochemistry at the C-1 anomeric position definitely influences the efficiency of mimicking glucose, and this might be due to the binding orientation of D-glucose in GLUTs [P. W. Hruz, M. M. Mueckler, Mole. Memb. Biol. 2001, 18, 183-193].
The cellular uptake of 2-NBDG was not detected under identical experimental conditions used for Cy3-Glc-α. […] To achieve the fluorescence intensity with 2-NBDG to 80% that of Cy3-Glc-α, a 10 fold increase in 2-NBDG concentration and a 20 fold increase in the lens exposure time in D-glucose-depleted medium were needed.
In addition, the cellular uptake of 2-NBDG in normal media (containing 10 mM D-glucose) was extremely low (>60% uptake reduction in normal media) and was hardly detected using fluorescent based imaging methods [R. G. O'Neil, L. Wu, N. Mullani, Mol. Imaging Biol. 2005, 7, 388-392]. 2-NBDG was detectable only in glucose-depleted media, and this means a critical limitation of bioapplication of 2-NBDG in the biologically significant environments. In comparison with 2-NBDG, the reduction of Cy3-Glc-α uptake in glucose-containing media was only 5% compared to that in glucose-depleted media (FIG. 18). Therefore, it was confirmed that Cy3-Glc-α was capable of being applied to a bioassay system regardless of glucose starvation.

NIH/3T3 cells [2] = test: FACS-based flow cytometric analysis of probe uptake with/without 11 mM D-glucose; type: cell-based, murine; conditions: for reduction in cellular uptake due to 11 mM D-glucose: glucose-depleted condition normalized to 100
Description: FACS (Fluorescence Activated Cell Sorting)-based flow cytometric analysis was used to compare cellular uptake efficiency in NIH/3T3 cells among the glucose probe [2-(N-Cy3-piperazinoethyl)]-α-D-glucose (GB2-Cy3), synthesized in Example 2, the conventional fluorescent glucose probe 2-NBDG and the glucose probe Cy3-Glc-α, synthesized in Example 1.
NIH/3T3 cells were cultured on 10 cm cell culture dishes and transferred in a volume of 3×10^5 cells into each FACS tube (5 mL, BD). They were washed once with cold PBS before incubation at 37° C. for 30 min in 11 mM D-glucose-containing PBS or glucose-free PBS in the presence of the bioprobe [GB2-Cy3 (5 μM), 2-NBDG (5 μM or 50 μM) or Cy3-Glc-α (5 μM)]. Cells that were incubated without the bioprobes were used as a negative control. After being washed with cold PBS, 1×10^4 NIH/3T3 cells were analyzed on FACSCalibur™ (FACS-based flow cytometer). GBs-Cy3 was detected by FL2 channels. Raw data of 1×10^4 cells are shown in histograms, with the mean values thereof given in the graph of FIG. 21.

[3] = normal media containing 10 mM D-glucose; cited from earlier work
A549 cells [4] = test: Screening of anticancer agents by Cy3-Glc-α uptake; type: cell-based, human
Description: as §1
The application was performed under the postulation that the depression of perturbed cellular metabolism in cancer cells was caused by anticancer agents, which was closely related to the reduction of glucose uptake.
The present inventors intended to monitor this phenomenon by the fluorescent bioprobe according to the present invention, that is, Cy3-Glc-α. As a proof-of-principle experiment, after A549 cancer cells were treated with taxol (9.8 μM), an anticancer agent, and the uptake of Cy3-Glc-αwas measured at 3, 6, 12, and 24 h after the treatment.
(3) In addition, after the taxol concentration was changed in the range of 490 nM to 49 nM, the uptake of Cy3-Glc-α by A549 cells was measured after 8 hr and 12 hr, and after another anticancer agent, i.e., combretastatin, (2 μM) was used to treat A549 cells, the uptake of Cy3-Glc-α by A549 cells was measured after 8 hr and 12 hr.

NIH/3T3 cells [5] = test: Fluorescence imaging analysis of competitive GB2-Cy3 uptake; type: cell-based, murine; conditions: GB2-Cy3 10 μM; 0, 11 or 55 mM D-glucose
Description: Also, NIH/3T3, A549, C2C12 and 3T3/L1 cells, each having a population of 4×10^4 cells, were cultured on 35 mm cell culture dishes (BD Falcon™ Cell Culture Dish; BD Bioscience, CA, USA). Two days later, the cell culture medium was replaced with a glucose-depleted medium (DMEM, glucose free, GIBCO) supplemented with 0 mM, 11 mM or 55 mM D-glucose and 10 μM GB2-Cy3. After incubation at 37° C. for 30 min, the cells on the cover slips in the 35-mm cell culture dishes were washed twice with cold PBS and the cover slips were mounted on the caster of a fluorescence microscope (Olympus IX71). During observation under the fluorescence microscope, the cells were maintained at 37° C. in the chamber. Fluorescence images of 35-50 cells were taken by CCD camera (Axiocam MRm, Germany) and each cell was measured for fluorescence intensity using the image data analysis program Image-Pro® Plus (MediaCybernetics, USA). […] Image-Pro® Plus analyzed CCD camera images to produce the digitized mean of fluorescence intensity within the ROIs that the present inventors had established. The background intensity was subtracted from the detected fluorescence intensity to give the fluorescence intensity value that a cell contained. In this manner, the fluorescence intensity was digitized for performing various experiments. […]

A549 cells [6] = test: Fluorescence imaging analysis of competitive probe uptake; type: cell-based, human
Description: Also, NIH/3T3, A549, C2C12 and 3T3/L1 cells, each having a population of 4×10^4 cells, were cultured on 35 mm cell culture dishes (BD Falcon™ Cell Culture Dish; BD Bioscience, CA, USA). Two days later, the cell culture medium was replaced with a glucose-depleted medium (DMEM, glucose free, GIBCO) supplemented with 0 mM, 11 mM or 55 mM D-glucose and 10 μM GB2-Cy3. After incubation at 37° C. for 30 min, the cells on the cover slips in the 35-mm cell culture dishes were washed twice with cold PBS and the cover slips were mounted on the caster of a fluorescence microscope (Olympus IX71). During observation under the fluorescence microscope, the cells were maintained at 37° C. in the chamber. Fluorescence images of 35-50 cells were taken by CCD camera (Axiocam MRm, Germany) and each cell was measured for fluorescence intensity using the image data analysis program Image-Pro® Plus (MediaCybernetics, USA). As ROIs (regions of interest), areas which encompassed cells within phase-contrast images were drawn using Image-Pro® Plus. Image-Pro® Plus analyzed CCD camera images to produce the digitized mean of fluorescence intensity within the ROIs that the present inventors had established. The background intensity was subtracted from the detected fluorescence intensity to give the fluorescence intensity value that a cell contained. In this manner, the fluorescence intensity was digitized for performing various experiments.
NIH/3T3 and A549 cells were cultured on microscope cover glasses in 35 mm cell culture dishes and subjected to fluorescence imaging analysis according to the protocol.

3T3/L1 pre-adipocytes = test: GB2-Cy3 uptake during adipocyte differentiation, FACS-based flow cytometry; type: cell-based, mouse; conditions: day 0 to day 8 of differentiation
Description: (§2) For the differentiation of preadipocyte to mature adipocytes, 3T3/L1 fibroblast cells were cultured using the above mentioned culture protocol. […] When the cells start to generate lipid drops as an indication of the differentiation toward mature adipocytes, insulin was removed from the culture media. Mature adipocytes can be achieved by 8- to 12-day differentiation, and used for flow cytometric analysis and fluorescent bioimaging microscopy.
The changes in cellular glucose uptake from 3T3/L1 pre-adipocytes (day 0 of differentiation) toward more than 50% differentiation of mature adipocytes (day 8 of differentiation) were measured by FACS-based flow cytometric analysis using GB2-Cy3. The differentiation procedure was followed as described above. 1×10^4 cells were analyzed at FL2 channel of the flow cytometry. […] As mentioned above, the glucose analogue GB2-Cy3 of the present invention is useful for monitoring the differentiation of 3T3/L1 cells into mature adipocytes.

C2C12 muscle cells [7] = test: Glucose competition and insulin response monitored by GB2-Cy3, flow cytometry; type: cell-based, mouse; conditions: D-glucose competition and insulin treatment
Description: (§3) For the differentiation to mature muscle cells, C2C12 mouse myoblast cells were maintained in DMEM supplemented with 10% FBS and 1% antibiotic-antimycotic solution. When the cells reached to 100% confluency, the medium was changed to DMEM containing 2% horse serum in every two days. Experiments for flow cytometric analysis and flow cytometric analysis were carried out with cells after 3 to 5-days differentiation.
The resulting cells were incubated with 5 μM GB2-Cy3 for 15 min in the absence/presence of 11 mM D-glucose. They were washed with cold PBS, collected and analyzed using FACSCalibur™. After detection of GB2-Cy3 by FL2 channels, mean fluorescent intensity values were calculated.

3T3/L1 adipocytes = test: Cellular glucose uptake under insulin, AICAR, dexamethasone monitored by GB2-Cy3; type: cell-based, mouse; conditions: insulin 170 nM, AICAR 1 mM (1 hr) or dexamethasone 1 μM (24 hrs); GB2-Cy3 10 μM
Description: as §2
Also, C2C12 cells and 3T3/L1 cells, each having a population of 6×10^4 cells, were cultured and differentiated on respective microscope cover glasses [Marlenfeld GmbH&Co., KG (Germany)] in 35 mm cell culture dishes. After removal of the differentiation media, FBS-free DMEM media containing 5.5 mM glucose were added to maintained a serum-free condition for 4 hrs. […] In this regard, an FBS-free DMEM medium containing 5.5 mM glucose or a DMEM medium free of both FBS and glucose was used. Cells were incubated at 37° C. for 30 min after which the glass chamber slides were withdrawn from the culture dishes and loaded on a chamber. […] Fluorescence images were taken every seven seconds, digitized and saved on a computer until analysis.
3T3/L1 preadipocyte cells and C2C12 […] cells were cultured in 24-well plates. […] 2×10^5 (3T3/L1) or 1×10^5 (C2C12) cells were analyzed using FACSCalibur™ and a confocal laser scanning microscope.

C2C12 muscle cells [8] = test: as above; type: cell-based, mouse; conditions: insulin 170 nM, AICAR 1 mM (1 hr) or dexamethasone 1 μM (24 hrs); GB2-Cy3 5 μM
Description: as §3
3T3/L1 preadipocyte cells and C2C12 fibroblast cells were cultured in 24-well plates. […] 2×10^5 (3T3/L1) or 1×10^5 (C2C12) cells were analyzed using FACSCalibur™ and a confocal laser scanning microscope.

Compound: O=[N+]([O-])c1ccc(NC2C(O)OC(CO)C(O)C2O)c2nonc12 [2-NBDG, 2-[N-(7-nitrobenz-2-oxa-1,3-diazol-4-yl)amino]-2-deoxy-D-glucose]
- detection of cellular uptake under conditions identical to Cy3-Glc-α (A549 cells [1]; 12.5 μM, 500 ms lens exposure): not detected
- fluorescence detection at 125 μM (A549 cells [1]; 125 μM, 500 ms CCD lens exposure): little detected; also recorded: the fluorescence was not detected
- fluorescence intensity of 2-NBDG relative to that of Cy3-Glc-α (A549 cells [1]; 10 fold 2-NBDG concentration, 20 fold lens exposure time, D-glucose-depleted medium): 80%
- competition with D-glucose for cellular uptake (NIH/3T3 cells [2]; probe 5 μM, 11 mM D-glucose): did not compete with D-glucose for cellular uptake
- reduction in cellular uptake due to 11 mM D-glucose (NIH/3T3 cells [2]; probe 50 μM): 30%
- uptake reduction in normal media [3]: > 60%

Compound: COc1ccc(C[C@@H](O)c2cc(OC)c(OC)c(OC)c2)cc1O [Combretastatin]
- uptake of Cy3-Glc-α by A549 cells (A549 cells [4]; agent 2 μM, 6 h): 57.4%
- uptake of Cy3-Glc-α by A549 cells (A549 cells [4]; agent 2 μM, 12 h): 45.0%

Compound: C[N+]1=C(/C=C/C=C2/N(CCCCC(=O)N3CCN(CCOC4OC(CO)C(O)C(O)C4O)CC3)c3ccccc3C2(C)C)C(C)(C)c2ccccc21 [GB2-Cy3, [2-(N-Cy3-piperazinoethyl)]-α-D-glucose]
- reduction in cellular uptake due to 11 mM D-glucose (NIH/3T3 cells [2]; probe 5 μM): about 60%
- cellular uptake versus D-glucose concentration (NIH/3T3 cells [5]): reduced in a D-glucose dose-dependent manner
- cellular uptake in A549 cells compared with NIH/3T3 cells (A549 cells [6]; GB2-Cy3 10 μM): observed to increase in A549 lung carcinoma cells
- cellular uptake versus D-glucose concentration (A549 cells [6]; GB2-Cy3 10 μM, 0, 11 or 55 mM D-glucose): reduced in a D-glucose dose-dependent manner
- cellular uptake versus D-glucose concentration (A549 cells [6]; probe 12.5 μM): decreased in the cellular uptake of the glucose analogues in D-glucose dose-dependent manners
- change in the fluorescent intensity of ROIs when D-glucose changed from 10 mM to 55 mM (A549 cells [6]; probe 12.5 μM): approximately 27%
- fluorescent intensity (FL2) as differentiation progressed (3T3/L1 pre-adipocytes): increase in fluorescence intensity with the advance of differentiation; also recorded: the fluorescent intensity detected by FL2 channel was increased
- uptake route of GB2-Cy3 (C2C12 muscle cells [7]): GLUT-specific uptake

Compound: CC(=O)O[C@H]1C(=O)[C@@]2(C)[C@H]([C@H](OC(=O)c3ccccc3)[C@]3(O)C[C@H](OC(=O)[C@H](O)[C@@H](NC(=O)c4ccccc4)c4ccccc4)C(C)=C1C3(C)C)[C@]1(OC(C)=O)CO[C@@H]1C[C@@H]2O [Taxol]
- uptake of Cy3-Glc-α by A549 cells (A549 cells [4]; agent 49 nM, 6 h): 96.5%
- uptake of Cy3-Glc-α by A549 cells (A549 cells [4]; agent 49 nM, 12 h): 86.9%
- uptake of Cy3-Glc-α by A549 cells (A549 cells [4]; agent 490 nM, 6 h): 88.4%
- uptake of Cy3-Glc-α by A549 cells (A549 cells [4]; agent 490 nM, 12 h): 61.8%
- uptake of Cy3-Glc-α by A549 cells (A549 cells [4]; agent 9.8 μM, 6 h): 54.8%
- uptake of Cy3-Glc-α by A549 cells (A549 cells [4]; agent 9.8 μM, 12 h): 50.2%
- cellular uptake of Cy3-Glc-α versus incubation time with agent (A549 cells [4]; taxol 9.8 μM, 3, 6, 12, 24 h): reduced as the incubation time increased

Compound: insulin: Insulin purchased from SIGMA; stimulates GLUT4 translocation and glucose uptake
- effect on cellular uptake of glucose monitored by GB2-Cy3 (3T3/L1 adipocytes): enhanced cellular uptake of glucose
- effect on cellular uptake of glucose monitored by GB2-Cy3 (C2C12 muscle cells [8]): enhanced cellular uptake of glucose
